Measurements as given in ChEMBL document CHEMBL2440076, “New triarylpyrazoles as broad-spectrum anticancer agents: design, synthesis, and biological evaluation” (Eur J Med Chem, 2013).

Legend:
Assay type in all cases: functional
[1] = test system: HCT-116; experiment: Growth inhibition of human HCT116 cells assessed as cell growth at 5X10'-9 M after 48 hrs by sulforhodamine B assay; settings: HCT-116, 48 h, read-out: Activity
[2] = test system: SNB-75; experiment: Growth inhibition of human SNB75 cells assessed as cell growth at 5X10'-5 M after 48 hrs by sulforhodamine B assay; settings: SNB-75, 48 h, read-out: Activity
[3] = test system: SNB-19; experiment: Growth inhibition of human SNB19 cells assessed as cell growth at 5X10'-5 M after 48 hrs by sulforhodamine B assay; settings: SNB-19, 48 h, read-out: Activity
[4] = test system: A549; experiment: Growth inhibition of human A549/ATCC cells assessed as cell growth at 5X10'-5 M after 48 hrs by sulforhodamine B assay; settings: A549, 48 h, read-out: Activity
[5] = test system: MOLT-4; experiment: Growth inhibition of human MOLT4 cells assessed as cell growth at 5X10'-5 M after 48 hrs by sulforhodamine B assay; settings: MOLT-4, 48 h, read-out: Activity
[6] = test system: MCF7; experiment: Growth inhibition of human MCF7 cells assessed as cell growth at 5X10'-6 M after 48 hrs by sulforhodamine B assay; settings: MCF7, 48 h, read-out: Activity
[7] = test system: OVCAR-5; experiment: Growth inhibition of human OVCAR5 cells assessed as cell growth at 5X10'-6 M after 48 hrs by sulforhodamine B assay; settings: OVCAR-5, 48 h, read-out: Activity
[8] = test system: NCI-H23; experiment: Growth inhibition of human NCI-H23 cells assessed as cell growth at 5X10'-9 M after 48 hrs by sulforhodamine B assay; settings: NCI-H23, 48 h, read-out: Activity
[9] = test system: A549; experiment: Growth inhibition of human A549/ATCC cells assessed as cell growth at 5X10'-9 M after 48 hrs by sulforhodamine B assay; settings: A549, 48 h, read-out: Activity
[10] = test system: SF-295; experiment: Growth inhibition of human SF295 cells assessed as cell growth at 5X10'-6 M after 48 hrs by sulforhodamine B assay; settings: SF-295, 48 h, read-out: Activity
[11] = test system: HCT-15; experiment: Growth inhibition of human HCT15 cells assessed as cell growth at 5X10'-6 M after 48 hrs by sulforhodamine B assay; settings: HCT-15, 48 h, read-out: Activity
[12] = test system: K562; experiment: Growth inhibition of human K562 cells assessed as cell growth at 5X10'-6 M after 48 hrs by sulforhodamine B assay; settings: K562, 48 h, read-out: Activity
[13] = test system: CCRF-CEM; experiment: Growth inhibition of human CCRF-CEM cells assessed as cell growth at 5X10'-6 M after 48 hrs by sulforhodamine B assay; settings: read-out: Activity
[14] = test system: SK-OV-3; experiment: Growth inhibition of human SKOV3 cells assessed as cell growth at 5X10'-7 M after 48 hrs by sulforhodamine B assay; settings: SK-OV-3, 48 h, read-out: Activity
[15] = Growth inhibition of human NCI-ADR-RES cells assessed as cell growth at 5X10'-7 M after 48 hrs by sulforhodamine B assay; settings: read-out: Activity
[16] = test system: SF-539; experiment: Growth inhibition of human SF539 cells assessed as cell growth at 5X10'-7 M after 48 hrs by sulforhodamine B assay; settings: SF-539, 48 h, read-out: Activity
[17] = test system: SF-295; experiment: Growth inhibition of human SF295 cells assessed as cell growth at 5X10'-7 M after 48 hrs by sulforhodamine B assay; settings: SF-295, 48 h, read-out: Activity
[18] = test system: HCT-116; experiment: Growth inhibition of human HCT116 cells assessed as cell growth at 5X10'-7 M after 48 hrs by sulforhodamine B assay; settings: HCT-116, 48 h, read-out: Activity
[19] = test system: A549; experiment: Growth inhibition of human A549/ATCC cells assessed as cell growth at 5X10'-7 M after 48 hrs by sulforhodamine B assay; settings: A549, 48 h, read-out: Activity
[20] = test system: CCRF-CEM; experiment: Growth inhibition of human CCRF-CEM cells assessed as cell growth at 5X10'-7 M after 48 hrs by sulforhodamine B assay; settings: read-out: Activity
[21] = test system: MDA-MB-468; experiment: Growth inhibition of human MDA-MB-468 cells assessed as cell growth at 5X10'-8 M after 48 hrs by sulforhodamine B assay; settings: MDA-MB-468, 48 h, read-out: Activity
[22] = test system: T47D; experiment: Growth inhibition of human T47D cells assessed as cell growth at 5X10'-8 M after 48 hrs by sulforhodamine B assay; settings: read-out: Activity
[23] = test system: BT-549; experiment: Growth inhibition of human BT549 cells assessed as cell growth at 5X10'-8 M after 48 hrs by sulforhodamine B assay; settings: BT-549, 48 h, read-out: Activity
[24] = test system: TK-10; experiment: Growth inhibition of human TK10 cells assessed as cell growth at 5X10'-8 M after 48 hrs by sulforhodamine B assay; settings: TK-10, 48 h, read-out: Activity
[25] = test system: OVCAR-5; experiment: Growth inhibition of human OVCAR5 cells assessed as cell growth at 5X10'-8 M after 48 hrs by sulforhodamine B assay; settings: OVCAR-5, 48 h, read-out: Activity
[26] = test system: OVCAR-4; experiment: Growth inhibition of human OVCAR4 cells assessed as cell growth at 5X10'-8 M after 48 hrs by sulforhodamine B assay; settings: OVCAR-4, 48 h, read-out: Activity
[27] = test system: SK-MEL-2; experiment: Growth inhibition of human SK-MEL-2 cells assessed as cell growth at 5X10'-8 M after 48 hrs by sulforhodamine B assay; settings: SK-MEL-2, 48 h, read-out: Activity
[28] = test system: M14; experiment: Growth inhibition of human M14 cells assessed as cell growth at 5X10'-8 M after 48 hrs by sulforhodamine B assay; settings: M14, 48 h, read-out: Activity
[29] = test system: BT-549; experiment: Growth inhibition of human BT549 cells assessed as cell growth at 5X10'-5 M after 48 hrs by sulforhodamine B assay; settings: BT-549, 48 h, read-out: Activity
[30] = Growth inhibition of human Hs 578T cells assessed as cell growth at 5X10'-5 M after 48 hrs by sulforhodamine B assay; settings: read-out: Activity
[31] = test system: UO-31; experiment: Growth inhibition of human UO31 cells assessed as cell growth at 5X10'-5 M after 48 hrs by sulforhodamine B assay; settings: UO-31, 48 h, read-out: Activity
[32] = test system: CAKI-1; experiment: Growth inhibition of human CAKI-1 cells assessed as cell growth at 5X10'-5 M after 48 hrs by sulforhodamine B assay; settings: CAKI-1, 48 h, read-out: Activity
[33] = test system: OVCAR-8; experiment: Growth inhibition of human OVCAR8 cells assessed as cell growth at 5X10'-5 M after 48 hrs by sulforhodamine B assay; settings: OVCAR-8, 48 h, read-out: Activity
[34] = test system: K562; experiment: Growth inhibition of human K562 cells assessed as cell growth at 5X10'-8 M after 48 hrs by sulforhodamine B assay; settings: K562, 48 h, read-out: Activity
[35] = test system: CCRF-CEM; experiment: Growth inhibition of human CCRF-CEM cells assessed as cell growth at 5X10'-8 M after 48 hrs by sulforhodamine B assay; settings: read-out: Activity
[36] = test system: SK-MEL-2; experiment: Growth inhibition of human SK-MEL-2 cells assessed as cell growth at 5X10'-9 M after 48 hrs by sulforhodamine B assay; settings: SK-MEL-2, 48 h, read-out: Activity
[37] = test system: LOX IMVI; experiment: Growth inhibition of human LOXIMVI cells assessed as cell growth at 5X10'-9 M after 48 hrs by sulforhodamine B assay; settings: read-out: Activity
[38] = test system: SNB-75; experiment: Growth inhibition of human SNB75 cells assessed as cell growth at 5X10'-9 M after 48 hrs by sulforhodamine B assay; settings: SNB-75, 48 h, read-out: Activity

Structure (SMILES) | growth at 0.005 µM [1] [%] | growth at 50 µM [2] [%] | growth at 50 µM [3] [%] | growth at 50 µM [4] [%] | growth at 50 µM [5] [%] | growth at 5 µM [6] [%] | growth at 5 µM [7] [%] | growth at 0.005 µM [8] [%] | growth at 0.005 µM [9] [%] | growth at 5 µM [10] [%] | growth at 5 µM [11] [%] | growth at 5 µM [12] [%] | growth at 5 µM [13] [%] | growth at 0.5 µM [14] [%] | growth at 0.5 µM [15] [%] | growth at 0.5 µM [16] [%] | growth at 0.5 µM [17] [%] | growth at 0.5 µM [18] [%] | growth at 0.5 µM [19] [%] | growth at 0.5 µM [20] [%] | other results
COc1cc(-c2nn(-c3cccc(NC(=O)c4cccc(C(F)(F)F)c4)c3)cc2-c2ccncc2)ccc1Cl | 99 | 8 | 28 | 9 | 16 | 13 | 46 | 91 | 102 | -24 | 15 | 9 | 6 | 101 | 86 | 81 | 83 | 92 | 91 | 88 | growth at 0.05 µM [21]: 90%; growth at 0.05 µM [22]: 91%; growth at 0.05 µM [23]: 98%; growth at 0.05 µM [24]: 97%; growth at 0.05 µM [25]: 90%; growth at 0.05 µM [26]: 98%; growth at 0.05 µM [27]: 97%; growth at 0.05 µM [28]: 94%; growth at 50 µM [29]: -1%; growth at 50 µM [30]: 13%; growth at 50 µM [31]: 19%; growth at 50 µM [32]: 17%; growth at 50 µM [33]: 10%; growth at 0.05 µM [34]: 94%; growth at 0.05 µM [35]: 98%; growth at 0.005 µM [36]: 96%; growth at 0.005 µM [37]: 94%; growth at 0.005 µM [38]: 90%
O=C(Nc1cccc(-n2cc(-c3ccncc3)c(-c3ccc(Cl)c(O)c3)n2)c1)c1ccc(N2CCOCC2)c(C(F)(F)F)c1 | 99 | 8 | 16 | 4 | -5 | 41 | 111 | 93 | 102 | 13 | 18 | 11 | 26 | 106 | 96 | 73 | 93 | 99 | 92 | 81 | growth at 0.05 µM [21]: 93%; growth at 0.05 µM [22]: 101%; growth at 0.05 µM [23]: 101%; growth at 0.05 µM [24]: 92%; growth at 0.05 µM [25]: 97%; growth at 0.05 µM [26]: 100%; growth at 0.05 µM [27]: 98%; growth at 0.05 µM [28]: 94%; growth at 50 µM [29]: 36%; growth at 50 µM [30]: 8%; growth at 50 µM [31]: -5%; growth at 50 µM [32]: -15%; growth at 50 µM [33]: 26%; growth at 0.05 µM [34]: 100%; growth at 0.05 µM [35]: 100%; growth at 0.005 µM [36]: 96%; growth at 0.005 µM [37]: 95%; growth at 0.005 µM [38]: 94%
O=C(Nc1cccc(-n2cc(-c3ccncc3)c(-c3ccc(Cl)c(O)c3)n2)c1)Nc1cc(C(F)(F)F)cc(C(F)(F)F)c1 | 101 | -75 | -47 | -80 | -29 | 4 | -54 | 98 | 96 | -57 | -9 | -5 | 3 | 98 | 74 | 82 | 61 | 46 | 37 | 62 | growth at 0.05 µM [21]: 85%; growth at 0.05 µM [22]: 98%; growth at 0.05 µM [23]: 111%; growth at 0.05 µM [24]: 107%; growth at 0.05 µM [25]: 89%; growth at 0.05 µM [26]: 95%; growth at 0.05 µM [27]: 113%; growth at 0.05 µM [28]: 104%; growth at 50 µM [29]: -90%; growth at 50 µM [30]: -40%; growth at 50 µM [31]: -86%; growth at 50 µM [32]: -67%; growth at 50 µM [33]: -53%; growth at 0.05 µM [34]: 108%; growth at 0.05 µM [35]: 92%; growth at 0.005 µM [36]: 112%; growth at 0.005 µM [37]: 98%; growth at 0.005 µM [38]: 88%
